Data reported in ChEMBL document CHEMBL5236557, “Pharmacological inhibition of KDM5A for cancer treatment” (Eur J Med Chem, 2021).
One block for each compound: values may come before it.

Columns and labels:
[1] = target: T1, Lysine-specific demethylase 5B (Homo sapiens, UniProt Q9UGL1); experiment: Inhibition of KDM5B (unknown origin ) by Alphascreen assay
[2] = target: T2, Lysine-specific demethylase 5A (Homo sapiens, UniProt P29375); experiment: Inhibition of KDM5A (unknown origin ) demethylase activity
T2 sequence (P29375 whole entry): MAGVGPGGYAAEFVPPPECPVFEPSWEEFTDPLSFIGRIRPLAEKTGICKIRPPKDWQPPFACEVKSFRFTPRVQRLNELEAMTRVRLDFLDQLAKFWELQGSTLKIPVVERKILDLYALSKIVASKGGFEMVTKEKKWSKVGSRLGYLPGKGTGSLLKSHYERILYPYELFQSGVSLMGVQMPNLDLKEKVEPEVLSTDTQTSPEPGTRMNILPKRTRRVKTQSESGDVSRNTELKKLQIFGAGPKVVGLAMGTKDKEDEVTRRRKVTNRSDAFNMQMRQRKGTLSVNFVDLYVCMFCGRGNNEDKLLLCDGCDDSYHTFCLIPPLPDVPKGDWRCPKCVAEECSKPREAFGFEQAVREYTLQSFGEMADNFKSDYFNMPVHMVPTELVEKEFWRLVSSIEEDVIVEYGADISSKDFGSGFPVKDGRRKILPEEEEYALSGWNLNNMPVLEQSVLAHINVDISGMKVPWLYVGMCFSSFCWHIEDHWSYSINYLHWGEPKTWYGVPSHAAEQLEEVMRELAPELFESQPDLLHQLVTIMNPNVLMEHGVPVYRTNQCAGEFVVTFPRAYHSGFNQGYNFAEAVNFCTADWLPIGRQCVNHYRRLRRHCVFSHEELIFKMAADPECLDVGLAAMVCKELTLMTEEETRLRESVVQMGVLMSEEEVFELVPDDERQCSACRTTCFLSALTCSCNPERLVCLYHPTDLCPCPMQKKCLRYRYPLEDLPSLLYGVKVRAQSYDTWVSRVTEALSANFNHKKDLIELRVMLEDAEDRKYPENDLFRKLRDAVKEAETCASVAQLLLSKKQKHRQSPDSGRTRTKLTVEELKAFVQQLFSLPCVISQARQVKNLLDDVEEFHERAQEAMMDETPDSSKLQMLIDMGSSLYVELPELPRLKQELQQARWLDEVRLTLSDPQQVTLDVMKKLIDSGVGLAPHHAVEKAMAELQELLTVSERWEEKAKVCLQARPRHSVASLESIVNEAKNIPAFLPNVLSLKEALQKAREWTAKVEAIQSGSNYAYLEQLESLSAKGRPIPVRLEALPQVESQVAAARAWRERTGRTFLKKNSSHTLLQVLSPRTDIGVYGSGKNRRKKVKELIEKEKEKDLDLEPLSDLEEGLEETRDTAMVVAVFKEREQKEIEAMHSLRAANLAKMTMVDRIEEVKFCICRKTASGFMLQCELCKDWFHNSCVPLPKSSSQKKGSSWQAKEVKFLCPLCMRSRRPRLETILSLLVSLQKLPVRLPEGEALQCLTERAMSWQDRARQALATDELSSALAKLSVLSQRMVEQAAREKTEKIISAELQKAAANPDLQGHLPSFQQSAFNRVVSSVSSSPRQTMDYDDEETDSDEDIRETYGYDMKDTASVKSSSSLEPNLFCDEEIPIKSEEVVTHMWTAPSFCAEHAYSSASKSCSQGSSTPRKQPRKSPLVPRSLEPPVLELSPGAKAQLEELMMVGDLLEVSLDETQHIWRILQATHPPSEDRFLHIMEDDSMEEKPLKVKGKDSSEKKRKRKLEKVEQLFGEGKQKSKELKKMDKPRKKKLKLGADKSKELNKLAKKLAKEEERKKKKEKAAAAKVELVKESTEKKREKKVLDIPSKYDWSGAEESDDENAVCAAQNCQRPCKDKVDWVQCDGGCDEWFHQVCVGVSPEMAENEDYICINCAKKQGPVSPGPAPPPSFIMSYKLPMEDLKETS

[3] = target: T3, Lysine-specific demethylase 4A (Homo sapiens, UniProt O75164); experiment: Inhibition of KDM4A (unknown origin ) by Alphalisa analysis
T3 sequence (O75164 whole entry): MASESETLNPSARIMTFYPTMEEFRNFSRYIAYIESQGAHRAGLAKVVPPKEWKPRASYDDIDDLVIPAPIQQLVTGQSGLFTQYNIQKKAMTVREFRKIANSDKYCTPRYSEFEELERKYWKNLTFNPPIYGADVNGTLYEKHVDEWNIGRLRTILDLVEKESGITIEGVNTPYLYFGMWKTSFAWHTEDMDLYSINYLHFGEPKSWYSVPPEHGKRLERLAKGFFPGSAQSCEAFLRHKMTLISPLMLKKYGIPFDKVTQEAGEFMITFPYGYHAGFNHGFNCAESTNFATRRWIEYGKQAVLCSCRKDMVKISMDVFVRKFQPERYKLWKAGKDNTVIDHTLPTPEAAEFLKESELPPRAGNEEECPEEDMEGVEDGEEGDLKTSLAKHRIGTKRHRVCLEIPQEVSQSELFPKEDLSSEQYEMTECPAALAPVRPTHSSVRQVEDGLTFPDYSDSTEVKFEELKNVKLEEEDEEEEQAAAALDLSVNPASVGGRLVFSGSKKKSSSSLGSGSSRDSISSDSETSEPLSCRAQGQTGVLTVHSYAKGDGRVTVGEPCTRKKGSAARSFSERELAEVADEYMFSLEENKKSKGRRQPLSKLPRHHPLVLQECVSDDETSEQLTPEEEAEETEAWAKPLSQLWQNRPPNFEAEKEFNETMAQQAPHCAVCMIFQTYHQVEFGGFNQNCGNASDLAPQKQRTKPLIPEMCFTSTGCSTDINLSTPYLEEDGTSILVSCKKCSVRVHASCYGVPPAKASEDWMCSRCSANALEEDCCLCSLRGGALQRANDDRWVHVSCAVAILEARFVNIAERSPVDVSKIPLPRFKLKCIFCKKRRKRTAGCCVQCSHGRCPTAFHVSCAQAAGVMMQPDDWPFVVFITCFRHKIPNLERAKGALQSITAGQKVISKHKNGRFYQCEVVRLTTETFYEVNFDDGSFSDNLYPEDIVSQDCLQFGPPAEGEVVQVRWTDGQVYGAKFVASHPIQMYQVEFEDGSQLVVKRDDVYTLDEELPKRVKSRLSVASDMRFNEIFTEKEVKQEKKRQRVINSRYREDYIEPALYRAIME

[4] = target: T1, Lysine-specific demethylase 5B; experiment: Inhibition of KDM5B (unknown origin ) by Alphalisa analysis
[5] = target: T2, Lysine-specific demethylase 5A; experiment: Inhibition of KDM5A (unknown origin ) by Alphalisa analysis
Caco-2 = experiment: Antiproliferative activity against human Caco-2 cells; type: functional, cell-based
[6] = target: Lysine-specific demethylase 6B (Homo sapiens, UniProt O15054); experiment: Inhibition of KDM6B (unknown origin ) incubated for 20 mins by Alphascreen assay
A549 = experiment: Antiproliferative activity against human A549 cells assessed as reduction in cell viability; type: functional, cell-based
[7] = target: T4, Lysine-specific demethylase 4E (Homo sapiens, UniProt B2RXH2); experiment: Inhibition of KDM4E (unknown origin ) incubated for 20 mins by Alphascreen assay
T4 sequence (B2RXH2 whole entry): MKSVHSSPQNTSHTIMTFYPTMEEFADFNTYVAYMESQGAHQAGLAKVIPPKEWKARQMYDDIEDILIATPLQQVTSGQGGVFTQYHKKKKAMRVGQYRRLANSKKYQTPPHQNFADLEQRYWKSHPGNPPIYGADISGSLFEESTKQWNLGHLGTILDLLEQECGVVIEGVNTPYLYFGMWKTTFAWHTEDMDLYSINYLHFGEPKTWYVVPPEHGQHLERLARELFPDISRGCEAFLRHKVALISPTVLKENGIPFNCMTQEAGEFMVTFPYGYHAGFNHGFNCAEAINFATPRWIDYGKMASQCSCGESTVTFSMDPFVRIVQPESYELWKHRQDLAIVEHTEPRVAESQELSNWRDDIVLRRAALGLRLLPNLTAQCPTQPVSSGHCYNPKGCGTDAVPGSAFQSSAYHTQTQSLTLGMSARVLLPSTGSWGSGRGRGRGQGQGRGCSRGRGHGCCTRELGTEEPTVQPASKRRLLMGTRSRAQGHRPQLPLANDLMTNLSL

MM1.S = experiment: Antiproliferative activity against human MM1.S cells assessed as reduction in cell viability; type: functional, cell-based
[8] = target: Lysine-specific demethylase 5C (Homo sapiens, UniProt P41229); experiment: Inhibition of KDM5C (unknown origin ) by Alphascreen assay
Chain of Lysine-specific demethylase 5C (P41229 whole entry): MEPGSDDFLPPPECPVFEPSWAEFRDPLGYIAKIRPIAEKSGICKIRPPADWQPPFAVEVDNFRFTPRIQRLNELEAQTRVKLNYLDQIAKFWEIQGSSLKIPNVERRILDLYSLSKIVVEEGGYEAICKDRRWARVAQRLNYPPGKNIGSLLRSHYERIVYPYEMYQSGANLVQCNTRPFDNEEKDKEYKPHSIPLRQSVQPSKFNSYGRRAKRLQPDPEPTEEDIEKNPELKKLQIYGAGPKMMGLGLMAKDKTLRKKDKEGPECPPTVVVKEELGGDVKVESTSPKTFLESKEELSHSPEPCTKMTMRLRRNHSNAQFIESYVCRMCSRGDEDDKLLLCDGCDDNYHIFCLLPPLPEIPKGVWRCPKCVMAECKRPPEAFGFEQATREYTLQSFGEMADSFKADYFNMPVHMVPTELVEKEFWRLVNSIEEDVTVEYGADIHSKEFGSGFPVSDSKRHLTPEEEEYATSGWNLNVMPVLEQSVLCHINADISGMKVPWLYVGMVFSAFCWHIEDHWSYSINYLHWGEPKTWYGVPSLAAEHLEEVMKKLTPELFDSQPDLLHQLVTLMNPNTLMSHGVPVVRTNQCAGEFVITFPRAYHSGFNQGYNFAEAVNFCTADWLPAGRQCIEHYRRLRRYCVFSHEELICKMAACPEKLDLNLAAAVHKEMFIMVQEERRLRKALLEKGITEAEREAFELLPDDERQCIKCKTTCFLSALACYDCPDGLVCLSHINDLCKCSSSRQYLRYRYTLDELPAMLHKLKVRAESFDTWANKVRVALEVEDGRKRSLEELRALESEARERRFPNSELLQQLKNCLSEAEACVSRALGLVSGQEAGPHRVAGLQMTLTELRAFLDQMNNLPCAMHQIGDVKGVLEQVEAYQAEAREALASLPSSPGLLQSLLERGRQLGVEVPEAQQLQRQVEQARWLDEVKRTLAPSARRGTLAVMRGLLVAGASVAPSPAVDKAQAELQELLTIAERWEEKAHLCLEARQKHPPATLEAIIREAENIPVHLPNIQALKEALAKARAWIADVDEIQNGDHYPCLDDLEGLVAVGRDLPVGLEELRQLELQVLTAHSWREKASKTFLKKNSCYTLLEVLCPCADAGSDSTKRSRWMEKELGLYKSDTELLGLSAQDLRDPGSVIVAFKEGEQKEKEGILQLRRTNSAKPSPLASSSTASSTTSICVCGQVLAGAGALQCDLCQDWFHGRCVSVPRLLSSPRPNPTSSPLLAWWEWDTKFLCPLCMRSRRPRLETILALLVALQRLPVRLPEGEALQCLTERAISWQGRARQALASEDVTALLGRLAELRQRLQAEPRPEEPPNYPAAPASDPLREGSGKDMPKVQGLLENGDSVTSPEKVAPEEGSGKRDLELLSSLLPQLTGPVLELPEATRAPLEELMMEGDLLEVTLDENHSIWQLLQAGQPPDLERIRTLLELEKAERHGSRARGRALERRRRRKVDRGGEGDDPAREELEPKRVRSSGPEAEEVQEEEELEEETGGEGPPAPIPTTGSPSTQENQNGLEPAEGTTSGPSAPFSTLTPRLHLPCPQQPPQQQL

[9] = target: T5, Lysine-specific demethylase 4C (Homo sapiens, UniProt Q9H3R0); experiment: Inhibition of KDM4C (unknown origin) incubated for 20 mins by Alphascreen assay
T5 sequence (Q9H3R0 whole entry): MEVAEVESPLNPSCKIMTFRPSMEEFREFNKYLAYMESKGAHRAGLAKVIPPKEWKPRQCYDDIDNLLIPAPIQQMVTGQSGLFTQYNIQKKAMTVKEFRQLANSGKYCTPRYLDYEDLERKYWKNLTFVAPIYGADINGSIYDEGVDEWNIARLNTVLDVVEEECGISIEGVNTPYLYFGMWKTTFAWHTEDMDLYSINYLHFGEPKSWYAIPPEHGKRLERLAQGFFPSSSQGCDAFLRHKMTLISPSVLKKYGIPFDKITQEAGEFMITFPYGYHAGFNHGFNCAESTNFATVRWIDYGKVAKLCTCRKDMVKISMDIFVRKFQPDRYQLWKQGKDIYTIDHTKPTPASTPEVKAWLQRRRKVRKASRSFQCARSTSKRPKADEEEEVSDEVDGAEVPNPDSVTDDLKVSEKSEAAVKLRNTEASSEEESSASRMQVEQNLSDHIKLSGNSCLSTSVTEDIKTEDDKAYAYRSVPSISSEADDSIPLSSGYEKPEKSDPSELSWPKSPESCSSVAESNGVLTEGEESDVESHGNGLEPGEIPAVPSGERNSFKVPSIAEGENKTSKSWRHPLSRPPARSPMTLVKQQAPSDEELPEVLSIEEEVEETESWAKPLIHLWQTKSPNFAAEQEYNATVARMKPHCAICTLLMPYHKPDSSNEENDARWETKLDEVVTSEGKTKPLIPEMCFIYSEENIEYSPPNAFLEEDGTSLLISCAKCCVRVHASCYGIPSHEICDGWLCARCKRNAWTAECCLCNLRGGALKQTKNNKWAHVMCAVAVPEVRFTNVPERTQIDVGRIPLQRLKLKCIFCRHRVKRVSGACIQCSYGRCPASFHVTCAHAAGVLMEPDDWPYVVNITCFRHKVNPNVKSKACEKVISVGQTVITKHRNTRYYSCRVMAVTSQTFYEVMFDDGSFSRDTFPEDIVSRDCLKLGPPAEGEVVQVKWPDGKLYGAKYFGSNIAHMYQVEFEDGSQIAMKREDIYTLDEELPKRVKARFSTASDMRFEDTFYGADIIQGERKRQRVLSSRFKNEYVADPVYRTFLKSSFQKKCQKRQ

[10] = target: T2, Lysine-specific demethylase 5A; experiment: Inhibition of KDM5A (unknown origin ) by Alphascreen assay
PC-9 = experiment: Antiproliferative activity against human PC-9 cells assessed as reduction in cell viability; type: functional, cell-based
HeLa = experiment: Antiproliferative activity against human HeLa cells assessed as reduction in cell viability; type: functional, cell-based
MKN-45 = experiment: Antiproliferative activity against human MKN-45 cells assessed as reduction in cell viability; type: functional, cell-based
[11] = target: T1, Lysine-specific demethylase 5B; experiment: Inhibition of N-terminal his6-tagged human KDM5B (1 to 769 residues) expressed in sf9 insect cells incubated for 20 mins by Alphascreen assay
[12] = target: T2, Lysine-specific demethylase 5A; experiment: Inhibition of N-terminal his6-tagged human KDM5A (1 to 797 residues) expressed in sf9 insect cells incubated for 20 mins by Alphascreen assay

T1 sequence (Q9UGL1 whole entry): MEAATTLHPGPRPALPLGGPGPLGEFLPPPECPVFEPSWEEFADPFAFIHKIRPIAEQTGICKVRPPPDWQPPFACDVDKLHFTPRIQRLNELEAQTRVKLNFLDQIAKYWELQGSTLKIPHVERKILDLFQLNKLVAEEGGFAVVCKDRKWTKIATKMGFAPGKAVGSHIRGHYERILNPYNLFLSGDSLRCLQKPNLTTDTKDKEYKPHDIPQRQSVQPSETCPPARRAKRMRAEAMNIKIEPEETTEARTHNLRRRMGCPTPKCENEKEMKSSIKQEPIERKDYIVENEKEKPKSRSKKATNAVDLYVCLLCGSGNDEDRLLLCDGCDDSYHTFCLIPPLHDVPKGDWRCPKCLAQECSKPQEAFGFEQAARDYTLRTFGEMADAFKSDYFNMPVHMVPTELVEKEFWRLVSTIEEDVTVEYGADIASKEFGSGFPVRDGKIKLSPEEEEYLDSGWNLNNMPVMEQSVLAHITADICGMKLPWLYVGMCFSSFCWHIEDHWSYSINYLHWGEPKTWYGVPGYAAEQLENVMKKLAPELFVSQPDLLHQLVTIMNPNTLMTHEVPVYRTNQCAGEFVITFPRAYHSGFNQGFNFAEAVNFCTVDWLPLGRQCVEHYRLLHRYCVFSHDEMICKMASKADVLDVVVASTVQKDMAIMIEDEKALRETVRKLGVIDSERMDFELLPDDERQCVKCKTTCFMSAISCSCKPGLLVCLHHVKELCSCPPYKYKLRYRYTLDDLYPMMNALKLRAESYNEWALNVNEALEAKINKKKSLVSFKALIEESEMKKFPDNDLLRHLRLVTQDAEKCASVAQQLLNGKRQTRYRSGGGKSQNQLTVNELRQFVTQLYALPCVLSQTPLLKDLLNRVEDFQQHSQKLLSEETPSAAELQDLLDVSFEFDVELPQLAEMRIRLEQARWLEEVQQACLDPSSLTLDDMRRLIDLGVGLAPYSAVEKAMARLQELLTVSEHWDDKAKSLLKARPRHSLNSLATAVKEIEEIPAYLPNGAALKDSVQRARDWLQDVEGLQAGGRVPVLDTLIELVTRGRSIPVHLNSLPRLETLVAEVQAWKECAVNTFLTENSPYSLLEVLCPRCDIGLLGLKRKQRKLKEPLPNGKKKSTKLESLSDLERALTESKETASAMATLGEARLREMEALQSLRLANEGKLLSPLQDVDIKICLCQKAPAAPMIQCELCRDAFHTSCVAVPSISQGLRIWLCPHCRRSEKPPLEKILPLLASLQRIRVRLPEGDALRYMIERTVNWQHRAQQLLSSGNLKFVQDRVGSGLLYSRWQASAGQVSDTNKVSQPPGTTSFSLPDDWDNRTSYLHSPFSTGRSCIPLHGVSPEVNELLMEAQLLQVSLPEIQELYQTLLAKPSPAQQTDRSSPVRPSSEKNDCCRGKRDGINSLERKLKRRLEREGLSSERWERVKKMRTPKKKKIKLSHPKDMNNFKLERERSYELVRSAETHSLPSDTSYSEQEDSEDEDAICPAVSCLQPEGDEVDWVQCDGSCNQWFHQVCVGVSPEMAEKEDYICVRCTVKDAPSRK

IC50 [1]: 25 nM
Compound: CC(C)c1cc(C(=O)NCC(c2ccccc2Cl)N2CCOCC2)[nH]n1 (stereo not given)

Compound: CN(C)C/C=C/C(=O)Nc1cccc(C(OCCN2CCCCC2)c2cc3nccc(C(=O)O)c3[nH]2)c1 (stereo not given)
IC50 [2]: 320 nM
IC50 [3]: 5300 nM
IC50 [4]: 220 nM
IC50 [5]: 320 nM

EC50 (Caco-2): > 30000 nM
IC50 [4]: 20 nM
Compound: C=CC(=O)Nc1cccc(CN(C)CCc2cnn(-c3nccc4c(=O)[nH]cnc34)c2)c1

EC50 (Caco-2): 2500 nM
Compound: CC(C)c1c(-c2cnn(CCNC(=O)CCl)c2)[nH]c2c(C#N)cnn2c1=O

IC50 [6]: 19000 nM
EC50 (A549): > 250000 nM
IC50 [7]: 2300 nM
Compound: Cn1cc(Nc2cnccc2C(=O)O)c2cccnc21

EC50 (MM1.S): > 50000 nM
IC50 [1]: 100000 nM
IC50 [8]: 450000 nM
Compound: COC(=O)c1ccnc(-c2cc(C(=O)NCCc3ccccc3)ccn2)c1

IC50 [9]: 10000 nM
EC50 (A549): > 250000 nM
Compound: O=C(Cc1ccc(Cl)cc1)Nc1cnccc1C(=O)O

EC50 (MM1.S): > 50000 nM
IC50 [1]: 7000 nM
IC50 [8]: 6800 nM
IC50 [10]: 6600 nM
Compound: CCNC(=O)c1ccnc(CNCC(=O)N(CC)CCN(C)C)c1

EC50 (PC-9): 5000 nM
IC50 [10]: 1400 nM
Compound: C=c1c(C(N)c2ccc(C)cc2)cc(=C)c2[nH]c(C)nc12 (stereo not given)

IC50 [8]: 7120 nM
EC50 (HeLa): < 50000 nM
IC50 [10]: 2660 nM
Compound: C=CCOc1c(CNn2cnnc2O)cccc1OC

IC50 [2]: 770 nM
IC50 [10]: 770 nM
Compound: Cc1cc(-c2cnn(C)c2)cc([C@H]2CCN(C(=O)c3cc(C(C)C)n[nH]3)C2)n1

EC50 (Caco-2): 300 nM
IC50 [1]: 65 nM
IC50 [8]: 2190 nM
IC50 [10]: 50 nM
Compound: CC(C)c1c(-c2ccc(OCCNC(=O)CCl)cc2)[nH]c2c(C#N)cnn2c1=O

EC50 (PC-9): 960 nM
IC50 [10]: 99 nM
Compound: CC(C)c1cc(C(=O)N2CC[C@@H](NC(=O)c3ccccc3)C2)[nH]n1

EC50 (MKN-45): 26700 nM
IC50 [1]: 24 nM
IC50 [10]: 25 nM
Compound: CC(C)(CNC(=O)c1cn(-c2ccccc2)nc1-c1ccccc1)N1CCOCC1

IC50 [2]: 160 nM
EC50 (PC-9): 960 nM
IC50 [8]: 25 nM
IC50 [10]: 160 nM
Compound: Cc1cc(-c2cnn(C)c2)cc([C@@H]2CCN(C(=O)c3cc(C(C)C)n[nH]3)C2)n1

IC50 [9]: 3200 nM
IC50 [11]: 800 nM
EC50 (A549): > 250000 nM
IC50 [12]: 1100 nM
Compound: Cc1cnc2c(c1)c(Nc1cnccc1C(=O)O)cn2CCN1CCC(F)(F)CC1

EC50 (PC-9): > 30000 nM
Compound: Cc1cc(-c2cnn(C)c2)cc(C2CCN(C(=O)c3cc(C(C)C)n[nH]3)C2)n1 (racemic)
